Results published in ChEMBL document CHEMBL5385851, “Natural quinazolinones: From a treasure house to promising anticancer leads” (Eur J Med Chem, 2023).
Values after ≈ are worked out from the molar mass of the structure shown.

Experiments:
Hs-578T = experiment: Cytotoxicity against human Hs-578T cells assessed as cell growth inhibition; format: functional, cell-based
NCI-H460 = experiment: Cytotoxicity against human NCI-H460 cells assessed as cell growth inhibition; format: functional
U-251 [1] = experiment: Growth inhibition of human U-251 cells incubated for 48 hrs by SRB assay; format: functional
ACHN [2] = experiment: Growth inhibition of human ACHN cells incubated for 48 hrs by SRB assay; format: functional
A549 = experiment: Cytotoxicity against human A549 cells assessed as cell growth inhibition; format: functional
786-0 = experiment: Cytotoxicity against human 786-0 cells assessed as cell growth inhibition; format: functional
DU-145 [3] = experiment: Cytotoxicity against human DU-145 cells assessed as cell growth inhibition; format: functional
U-251 [4] = experiment: Cytotoxicity against human U-251 cells assessed as cell growth inhibition; format: functional
ACHN [5] = experiment: Growth inhibition of human ACHN cells; format: functional
L1210 = experiment: Antiproliferative activity against mouse L1210 cells assessed as cell growth inhibition measured after 72 hrs by MTT assay; format: functional, cell-based; conditions: L1210, 72 h
HL-60 [6] = experiment: Cytotoxicity against human HL-60 cells assessed as cell growth inhibition by MTT assay; format: functional
NCI-N87 [7] = experiment: Cytotoxicity against human NCI-N87 cells; format: functional, cell-based
PC-3 = experiment: Cytotoxicity against human PC-3 cells assessed as inhibition of cell growth; format: functional, cell-based
DU-145 [8] = experiment: Growth inhibition of human DU-145 cells incubated for 24 hrs by sulforhodamine B assay; format: functional
NCI-N87 [9] = experiment: Cytotoxicity against human NCI-N87 cells measured after 72 hrs by Celltiter-Glo assay; format: functional, cell-based; conditions: NCI-N87, 72 h
HL-60 [10] = experiment: Cytotoxicity against human HL-60 cells assessed as reduction in cell growth incubated for 48 hrs by MTT assay; format: functional, cell-based; conditions: HL-60, 48 h
[11] = target: Indoleamine 2,3-dioxygenase 1 (Homo sapiens, UniProt P14902); experiment: Inhibition of IDO1 in HEK293 cells; format: cell-based
Chain of Indoleamine 2,3-dioxygenase 1 (P14902 whole entry): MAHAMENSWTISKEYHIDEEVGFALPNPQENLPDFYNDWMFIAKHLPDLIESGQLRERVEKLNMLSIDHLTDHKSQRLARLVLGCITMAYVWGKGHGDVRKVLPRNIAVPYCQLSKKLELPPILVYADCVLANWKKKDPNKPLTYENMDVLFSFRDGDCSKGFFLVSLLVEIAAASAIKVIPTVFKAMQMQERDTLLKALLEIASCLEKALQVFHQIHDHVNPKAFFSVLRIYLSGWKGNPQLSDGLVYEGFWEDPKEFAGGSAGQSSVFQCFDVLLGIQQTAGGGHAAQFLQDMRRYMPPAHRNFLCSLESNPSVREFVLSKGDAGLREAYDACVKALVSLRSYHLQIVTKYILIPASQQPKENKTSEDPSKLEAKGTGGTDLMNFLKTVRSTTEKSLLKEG

HL-60 [12] = experiment: Cytotoxicity against human HL-60 cells assessed as reduction in cell viability; format: functional, cell-based
OVCAR-4 = experiment: Cytotoxicity against human OVCAR-4 cells assessed as cell growth inhibition; format: functional

COC1c2cc3ccccc3nc2-c2nc3ccccc3c(=O)n21 (centres undefined)
IC50 (Hs-578T): 9 µg/mL (≈ 28.5 µM)

O=c1c2ccccc2nc2n1CCc1c-2[nH]c2ccc(Br)cc12
GI50 (NCI-H460): 1550 nM

CN1c2ccccc2C(=O)N2CCc3c([nH]c4ccc(Br)cc34)C21 (centres undefined)
GI50 (U-251 [1]): 300 nM | GI50 (ACHN [2]): 400 nM

COc1ccc2c3c([nH]c2c1)-c1nc2ccccc2c(=O)n1CC3
GI50 (A549): 750 nM | GI50 (786-0): 310 nM

O=C1c2ccccc2NC2c3[nH]c4ccccc4c3CCN12 (centres undefined)
GI50 (DU-145 [3]): 200 nM | GI50 (U-251 [4]): 20 nM

CSc1ccc2[nH]c3c(c2c1)CCN1C(=O)c2ccccc2NC31 (centres undefined)
GI50 (ACHN [5]): 80 nM

O=c1c2ccccc2nc2n1Cc1cc3cccnc3nc1-2
IC50 (L1210): 130 nM

O=c1c2ccccc2nc2n1CCc1c-2[nH]c2c(Cl)c(Cl)ccc12
GI50 (HL-60 [6]): 150 nM

O=c1c2ccc(O)cc2nc2c3[nH]c4ccccc4c3ccn12
IC50 (NCI-N87 [7]): 27900 nM | IC50 (PC-3): 17400 nM

C[S+]([O-])c1ccc2[nH]c3c(c2c1)CCN1C(=O)c2ccccc2NC31 (centres undefined)
GI50 (DU-145 [8]): 100 nM

CO[C@@H]1c2c([nH]c3ccccc23)-c2nc3ccccc3c(=O)n2[C@H]1O
IC50 (NCI-N87 [9]): 22300 nM | IC50 (HL-60 [10]): 7820 nM

O=C1c2ccccc2N[C@H]2[C@H](O)C3C=C(F)C=CC3N12 (some centres undefined)
IC50 [11]: 24.3 nM

CCO[C@@H]1c2c([nH]c3ccccc23)-c2nc3ccccc3c(=O)n2[C@H]1O
IC50 (HL-60 [12]): 8310 nM

O=c1c2cc(Cl)ccc2nc2n1CCc1c-2[nH]c2ccccc12
GI50 (OVCAR-4): 1500 nM
